Like-named read-outs stand apart in the source and are kept apart here. Values belong to the compound of their own block, whether it stands above or below them.
Key:
[1] = test system: Kir1 and Kir2 channels; conditions: cited from earlier work
[2] = test system: Kir3.1/3.4 and Kir3.1/3.2 channels; conditions: cited from earlier work
[3] = target: T1, Kir3 channels (Mus musculus, UniProt P48542); test: patch-clamp determination of ion transport activity: activation of Kir3 channels; format: cell-based; conditions: for Emax at 100000 µM: read-out: Maximal activation of Kir3 channels relative to that of 100 mM (±)MPD
T1 construct: other: patch-clamp; other: 100 mM
T1 sequence (P48542 1-425): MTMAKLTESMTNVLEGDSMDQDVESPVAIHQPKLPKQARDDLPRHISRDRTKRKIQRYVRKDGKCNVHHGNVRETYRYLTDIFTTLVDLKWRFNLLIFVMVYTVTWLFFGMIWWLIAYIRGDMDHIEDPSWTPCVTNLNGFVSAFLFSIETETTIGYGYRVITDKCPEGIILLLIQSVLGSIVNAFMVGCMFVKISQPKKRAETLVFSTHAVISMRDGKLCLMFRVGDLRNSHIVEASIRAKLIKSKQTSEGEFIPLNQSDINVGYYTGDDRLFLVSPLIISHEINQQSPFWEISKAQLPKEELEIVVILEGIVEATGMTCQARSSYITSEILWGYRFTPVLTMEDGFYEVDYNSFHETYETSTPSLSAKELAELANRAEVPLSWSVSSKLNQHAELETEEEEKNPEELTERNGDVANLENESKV
Text: It has been determined that inwardly rectifying potassium (Kir) channels are regulated directly by small molecule alcohol compounds. Three-dimensional crystallographic analysis of Kir channels has elucidated atomic details of binding pocket interactions with 2-methyl-2,4-pentanediol (MPD). MPD inhibits Kir2 channel activity and activates Kir3 channel activity. Amino acid substitutions in this hydrophobic pocket of the channel protein may alter the response to MPD. As determined by patch-clamp determinations of ion transport activity, a racemic mixture of 2-methyl-2,4-pentanediol, (±)MPD, activates Kir3 channels with an EC50 of >200 mM and inhibits Kir2 homotetramer channels with an IC50 of ˜200 mM. […] Bupivacaine inhibits Kir3.1/3.4 and Kir3.1/3.2 channels with an IC50 of ˜20-40 micromolar.
The following also were observed. Maximal activation of Kir3 channels by 100 mM (±)MPD is 280% that of 100 mM EtOH. Maximal activation of Kir3 channels by 100 mM R(−)2 methyl-2,4-pentanediol is 60% that of 100 mM (±)MPD. Maximal activation of Kir3 channels by 100 mM 3-methyl-1,3,5-pentanetriol is 70% that of 100 mM (±)MPD. Maximal activation of Kir3 channels by 100 mM 2,5-dimethyl-1,2,6-hexanetriol is 70% that of 100 mM (±)MPD. Maximal activation of Kir3 channels by 100 mM (±) 2,4-pentanediol is 50% that of 100 mM (±)MPD.

[4] = target: T2, GIRK2 channel (wild type) (Mus musculus, UniProt P48542); test: whole-cell patch clamp, HEK293T cells transfected with GIRK2; format: cell-based; conditions: 1 mM Ba++, MPD doses up to 300 mM
T2 construct: expressed in transfected cells; host or cells: HEK293T
T2 sequence (P48542 1-425): T1 sequence (P48542 1-425)
Text: (§1) GIRK2c, GIRK4, IRK1, M2R and m-Phosducin were subcloned into PCDNA3.1 vector (Invitrogen). Point mutations were introduced by Quickchange site directed mutagenesis kit (Stratagene). The GIRK2 PIP mutant was generated by overlap-PCR method. Briefly, amino acid 216-NLRKSHL-222 (SEQ ID NO: 25) of IRK1 was swapped into 228-DLRNSHL-234 (SEQ ID NO: 26) of GIRK2, in the region designated βC-βD loop in the crystal structure. Mutations were confirmed by automated DNA sequencing methods.
(§2) HEK 293T cells were cultured in DMEM supplemented with 10% FBS, and 1× Glutamax (Invitrogen) in a humidified 37° incubator with 5% CO2. Cells were plated in a 12 well dish, and were transiently transfected using Lipofectamine 2000 (Invitrogen). After 12-24 hrs, cells were re-plated to 12-mm glass coverslips coated with poly-D-Lysine (20 microgram/ml).
(§3) HEK293 cells were transfected with 0.2 micrograms of channel cDNA. The cells were co-transfected with 0.04 micrograms of eYFP cDNA to identify transfected cells. 0.8 micrograms of Muscarinic Receptor 2 (M2R) was also co-transfected for experiments with Carbachol. For experiments with and without m-phosducin, 0.8 ug of m-phosducin cDNA was used versus a PCDNA3.1 vector control.
(§4) Whole-cell patch clamp recordings were performed 24-72 hrs after transfection. Borosilicate glass electrodes (Warner Instruments) of […] filled with intracellular solution (130 mM KCl, 20 mM NaCl, 5 mM EGTA, 2.56 mM K2ATP, 5.46 mM MgCl2, 0.30 mM Li2GTP, and 10 mM HEPES (pH 7.4)) was used. Membrane currents were recorded using Axopatch 200B (Axon Instruments) amplifier, adjusted electronically for cell capacitance and series resistance (80-100%), filtered at 1 kHz with an 8-pole Bessel filter and digitized at 5 kHz with a Digidata 1200 interface (Axon Instruments). The cells rapidly perfused with a 20 mM K^+ (20K) solution (20 mM KCl, 140 mM NaCl, 0.5 mM CaCl2, 2 mM MgCl2 and 10 mM HEPES (pH7.4)). Alcohols, 5 μM Carbachol, and 1 mM BaCl2 (diluted in 20K solution) were applied from outside the cell with the rapid perfusion system (Warner Instruments). Whole-cell currents were measured using a ramp protocol that holds at −40 mV, steps to −100 mV then ramps to +50 mV and repeats every 2 seconds. Current-voltage relationships also were obtained from the ramp protocol. This protocol was used to measure the inwardly rectifying currents at −100 mV and to ensure stability of recording by monitoring a reversal potential and inward rectification. Current density was measured by dividing inward current at −100 mV by membrane capacitance that was compensated during the recording. Basal currents were measured as the Ba^++ blocked inward currents at −100 mV. Alcohol and Carbachol modulated currents were measured by averaging two consecutive current readings upon reaching steady state, and subtracting the averaged basal current before and after the application of modulator. Pooled data are presented as Mean±SEM and evaluated for statistical significance by a 1-way ANOVA, followed by Bonferroni's multiple comparison post-hoc test.

[5] = target: T3, IRK1 channel (Mus musculus, UniProt P35561); test: whole-cell patch clamp, HEK293T cells transfected with IRK1; format: cell-based; conditions: 1 mM Ba++
T3 construct: expressed in transfected cells; host or cells: HEK293T
T3 sequence (P35561 1-428): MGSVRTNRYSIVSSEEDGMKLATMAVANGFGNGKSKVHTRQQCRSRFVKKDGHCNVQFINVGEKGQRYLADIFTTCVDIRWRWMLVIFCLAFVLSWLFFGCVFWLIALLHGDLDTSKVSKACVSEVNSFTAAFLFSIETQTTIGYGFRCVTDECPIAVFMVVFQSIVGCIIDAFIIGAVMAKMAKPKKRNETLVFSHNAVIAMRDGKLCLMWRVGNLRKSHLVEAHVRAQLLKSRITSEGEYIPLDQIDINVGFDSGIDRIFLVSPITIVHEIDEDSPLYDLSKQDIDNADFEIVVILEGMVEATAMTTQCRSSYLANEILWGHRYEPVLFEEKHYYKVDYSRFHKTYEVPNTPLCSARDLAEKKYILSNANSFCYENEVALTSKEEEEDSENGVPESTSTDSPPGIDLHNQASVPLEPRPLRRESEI
Experimental: Using whole-cell patch clamp, technique in HEK293T cells transfected with IRK1 or GIRK2 channels, it was determined that MPD does in fact modulate these channels. Addition of 100 mM MPD inhibits the inward currents of the IRK1 channel, without changing the reversal potential or altering inward rectification (FIG. 1e).
as §1, §2, §3, §4

SMILES: CCCCN1CCCCC1C(=O)Nc1c(C)cccc1C (stereo not drawn) [Bupivacaine]
sensitivity of Kir1 and Kir2 channels to bupivacaine [1]: insensitive
IC50 ([2]; certain Kir3 channels, read-out: IC50 for inhibition of certain Kir3 channels): ~20 µM
IC50 ([2]; reference [31], read-out: IC50 for inhibition of Kir3.1/3.4 and Kir3.1/3.2 channels): 20 to 40 µM

SMILES: [Ba+2].[Cl-].[Cl-] [Ba^++, BaCl2]
block of MPD-induced GIRK2 currents [4]: completely blocked
block of IRK1 inwardly rectifying current [5]: blocked completely

Next, values leading:

Emax at 100000 µM [3]: 70%
SMILES: CC(CO)CCC(C)(O)CO (stereo not drawn) [2,5-dimethyl-1,2,6-hexanetriol]

Emax at 100000 µM [3]: 70%
SMILES: CC(O)(CCO)CCO [3-methyl-1,3,5-pentanetriol]

Emax at 100000 µM [3]: 50%
SMILES: CC(O)CC(C)O (racemic) [(±) 2,4-pentanediol, 2,4-pentanediol]

Maximal activation of Kir3 channels relative to that of 100 mM (±)MPD ([3]; 100 mM): 60%
SMILES: C[C@@H](O)CC(C)(C)O [R(−)2 methyl-2,4-pentanediol]

From patent publication US8097422B2, “Kir channel modulators” (Salk Institute for Biological Studies, priority 2007, dated 2012)
